According to PMC6891695, “Evaluation of Antifouling Potential and Ecotoxicity of Secondary Metabolites Derived from Red Algae of the Genus Laurencia” (Marine Drugs, 2019):
Like-named read-outs stand apart in the source and are kept apart here.

What was measured:
HEK293 cell line = assay: HEK293 neutral red assay (lysosome activity); type: cell-based, human; conditions: for EC50: Homo sapiens, HEK293, Neutral red assay, 48 h incubation; for effect on lysosomal activity (in words): HEK293
Experimental: (§1) The RTL-W1 cell line, a non-transformed rainbow trout liver cell line that has already been used in environmental toxicity assays, was established from the normal liver of an adult rainbow trout by proteolytic dissociation of liver fragments. RTL-W1 cells were cultured in 75 cm^2 culture flasks (Orange Scientific, Braine l’Alleud, Belgium) at 20 °C in Leibovitz’s (L-15, Sigma-Aldrich, St. Louis, MO, USA) medium supplemented with 5% fetal bovine serum (FBS) and 1% L-glutamine in CO2-free incubator. For the cytotoxicity assays of the selected secondary metabolites, cells were seeded at 3 × 10^4 cells/well density in a 96-well tissue culture plate (Orange Scientific Braine l’Alleud, Belgium) in 100 μL culture medium/well for 2 days before the assays. Three different cytotoxicity protocols were used: 1) The alamar blue/resazurin fluorometric/colorimetric cell viability assay to assess the metabolic capacity and mitochondrial function; 2) the crystal violet cell viability assay for indirect quantification of cell death; and 3) the neutral red cell proliferation assay for lysosomal activity. Two days after seeding the cells, cultures were incubated with various concentrations of selected secondary metabolites at 20 °C for 48 h before cell viability was assessed. […] For the alamar blue/resazurin fluorometric/colorimetric cell viability assay, 100 μL of 3 μg/100 μL Resazurin sodium salt (Sigma-Aldrich, St. Louis, MO, USA) in incubation medium was added on each well and incubated under sterile conditions at 20 °C for 4 h. For the crystal violet cell viability assay, after 48 h of incubation with each secondary metabolite, the culture medium was aspirated and cells were washed twice with sterile dd. H2O. The final wash was aspirated and 50 μL of 0.5% (w/v) crystal violet staining solution (20% methanol in dd. H2O) was added to each well followed by incubation for 20 min at room temperature on a bench rocker with a frequency of 20 oscillations per minute. The staining solution was then aspirated and the plate was washed four times with sterile dd. H2O and left to air-dry without its lid for 3 h at room temperature. Next, 200 μL of methanol was added to each well, and the plate was incubated with its lid on for 20 min at room temperature on a bench rocker with a frequency of 20 oscillations per minute. For the neutral red cell proliferation assay, after 48 h of incubation with each secondary metabolite, the culture medium was aspirated and cells were washed twice with phosphate-buffered saline (PBS, pH 7.4). Cells were then incubated with 100 μL of a 40 μg/mL neutral red staining solution in culture medium at 20 °C for 4 h followed by two washes with 150 μL of PBS. Then cells were incubated with 100 μL neutral red destain solution (50% ethanol, 49% dd. H2O, 1% glacial acetic acid) for 10 min on a bench rocker with a frequency of 80 oscillations per minute. Absorbance was read at 570 nm for alamar blue/resazurin and crystal violet and at 540 nm for neutral red using a Tecan infinite M200 Pro microplate reader. For each assay and each secondary metabolite, a minimum of four independent dose–response experiments with three replicates each were carried out. Calculations were carried out using detailed formulas (AbCam, Cambridge, UK, and results were analyzed with GraphPad Prism v.6.
HEK293 cells, a human embryotic kidney cell line, were obtained from ATCC (ATCC® CRL-1573™) at passage 37 of the original clone and used at passage 38. Cells were cultured routinely in 75 cm^2 culture flasks (Orange Scientific, Braine l’Alleud, Belgium) at 37 °C (5% CO2) in DMEM cell culture medium (Biosera) supplemented with 10% FBS (Sigma-Aldrich, St. Louis, MO, USA) and 1% L-glutamine. All assay conditions and protocols were identical to those described above for RTL-W1 cells with the exception that incubations were carried out at 37 °C. […]

RTL-W1 cell line = assay: RTL-W1 alamar blue/resazurin assay (mitochondria function); type: cell-based, rainbow trout; conditions: for EC50: Oncorhynchus mykiss, RTL-W1, Alamar blue/Resazurin assay, 48 h incubation; for effect on general metabolism and mitochondrial activity (in words): RTL-W1
Experimental: as §1
(§2) For EC50 or IC50 (the concentration that results in 50% stimulation or inhibition relative to the control) calculations in GraphPad Prism v.6, all data were fitted to the curve according to the following models for normalized response: Y = 100/(1 + 10^((X − LogIC50))) or Y = 100/(1 + 10^((LogEC50 − X))) depending on the trend of the curve.

cyprids of A. amphitrite = assay: whole plant or invertebrate; type: in vivo; conditions: for EC50 / IC50: Amphibalanus amphitrite; for EC50: read-out: EC50 No Metamorphosis; for EC50 values for settlement inhibition of barnacle cyprids (in words): consistently, 24-72 h
Experimental: (§3) Adult A. amphitrite (Cirripedia, Balanidae) were collected from boat docks at Port Mikrolimano and Floisvos, Athens, Greece. Animals were cleaned of epibionts with a small hard brush and meticulously identified as individuals of the species. Adult barnacles were kept in separate aerated glass tanks (20 L) containing 200-μm filtered natural seawater at 27 °C and a 12:12 L:D photoperiod. Tanks were fed with 24-h hatched Artemia sp. (Branchiopoda) nauplii and Tetraselmis suecica (Chlorodendrophyceae) and Skeletonema costatum (Bacillariophyceae) algae each day and seawater was changed on alternate days. Upon stress to induce oviposition (exposure to air for 24 h or immersion in fresh water for 5 h), adults were returned to seawater for larval release. Hatched nauplii were attracted to a point light source, collected and placed into a beaker containing 2 or 3 L of 0.7 μm GF/F (GE Healthcare, Little Chalfont, UK )-filtered natural seawater at a density of approximately 1–2 nauplii/mL with gentle aeration. Nauplii were maintained at 27 °C at a 12:12 L:D photoperiod on a diet of C. gracilis (Bacillariophyceae) provided at a density of 2 × 10^5 cells/mL. Cultured in these conditions, nauplii metamorphosed to cyprids in 5 days. Aliquots of these cyprids were collected with a wide-mouthed Pasteur pipette and aged at 4 °C for 1 day prior to use in settlement assays. Only batches of cyprids that were active and had numerous oil cells, representing energy reserves, were used in settlement assays.
(§4) Assays were conducted by adding 10 cyprids into individual wells of a 24-well polystyrene sterile microplate (Orange Scientific, Braine l’Alleud, Belgium) with 2 mL of artificial sea water (ASW) (25‰) and various concentrations of the chemical compounds as listed in Table 1. These experiments were repeated at least three times with four replicates for each concentration of any given compound (n = 120 cyprids/compound). Stock solutions for all compounds were prepared in methanol (Scharlab, Barcelona, Spain) and serial dilutions were prepared in 0.7 μm (GF/F, GE Healthcare, Little Chalfont, UK), filtered sea water to have a final concentration of 2.5% methanol in each assay solution. Plates were covered and sealed with Parafilm® to avoid evaporation and incubated at 25 °C away from any light source and examined after 24, 48 and 72 h. Each animal was inspected under a stereomicroscope and its condition was recorded. […] Both permanently attached and metamorphosed individuals were counted as settled or juveniles. The remainder were counted as ‘no metamorphosis’, i.e. animals that responded to light touch and were still cyprids at the end of the experiments with no overt signs of metamorphosis.
as §2

in vivo = type: in vivo; conditions: Amphibalanus amphitrite, in vivo, read-out: LC50 Mortality; for LC50 at 24 h: 24 h exposure; for LC50 at 48 h: 48 h exposure; for LC50 at 72 h: 72 h exposure
Experimental: as §3, §4, §2

[1] = 24 h, read-out: IC50 Settlement
[2] = 48 h, read-out: IC50 Settlement
[3] = 72 h, read-out: IC50 Settlement

## CC(C)[C@@H]1CC=C[C@H]2[C@H]3[C@](C)(CC[C@]12CBr)[C@@H](Br)CC[C@@]3(C)O [Bromosphaerol, reference compound]
HEK293 cell line
  EC50: 340 µM
RTL-W1 cell line
  EC50: > 1000 µM
Cyprids of A. amphitrite; 24 h
  EC50: 0.45 µM
Cyprids of A. amphitrite; [1]
  IC50: 0.58 µM
Cyprids of A. amphitrite; 48 h
  EC50: 0.267 µM
Cyprids of A. amphitrite; [2]
  IC50: 0.624 µM
Cyprids of A. amphitrite; 72 h
  EC50: 0.561 µM
Cyprids of A. amphitrite; [3]
  IC50: 0.836 µM
Cyprids of A. amphitrite; in vivo
  animals not progressing to metamorphosis: large percentage of animals not progressing to metamorphosis
In vivo
  LC50 at 24 h: 17.9 µM
  LC50 at 48 h: 4.57 µM
  LC50 at 72 h: 2.5 µM

## CC1=C2CC[C@@](C)(Cl)[C@@H](Br)C[C@]2(C)[C@@H](C)[C@@H](Br)[C@@H]1O [Compound 9, perforenol]
HEK293 cell line
  effect on lysosomal activity (in words): not affected
  EC50: > 1000 µM
RTL-W1 cell line
  EC50: > 1000 µM
  effect on general metabolism and mitochondrial activity (in words): none of the three tested metabolites had an effect
Cyprids of A. amphitrite; 24 h
  EC50: 38.2 µM
Cyprids of A. amphitrite; [1]
  IC50: 0.52 µM
Cyprids of A. amphitrite; 48 h
  EC50: 47.4 µM
Cyprids of A. amphitrite; [2]
  IC50: 0.66 µM
Cyprids of A. amphitrite; 72 h
  EC50: 57.8 µM
Cyprids of A. amphitrite; [3]
  IC50: 0.5 µM
Cyprids of A. amphitrite; read-out: IC50 settlement-inhibiting activity
  IC50: ~0.5 µM
Cyprids of A. amphitrite
  EC50 values for settlement inhibition of barnacle cyprids (in words): sub-micromolar
In vivo
  LC50 at 24 h: 76.2 µM
  LC50 at 48 h: 116 µM
  LC50 at 72 h: 49.1 µM

## C=CC(C)(O)CC[C@@H]1C(=C)CC[C@@H](Br)[C@@]1(C)CCC1OC1(C)C (stereo partly shown) [Compound 18]
HEK293 cell line
  effect on lysosomal activity (in words): not affected
  EC50: > 1000 µM
RTL-W1 cell line
  EC50: > 1000 µM
  effect on general metabolism and mitochondrial activity (in words): none of the three tested metabolites had an effect
Cyprids of A. amphitrite; 24 h
  EC50: 45.4 µM
Cyprids of A. amphitrite; [1]
  IC50: 0.046 µM
Cyprids of A. amphitrite; 48 h
  EC50: 50.4 µM
Cyprids of A. amphitrite; [2]
  IC50: 0.076 µM
Cyprids of A. amphitrite; 72 h
  EC50: 48.5 µM
Cyprids of A. amphitrite; [3]
  IC50: 0.316 µM
Cyprids of A. amphitrite
  EC50 values for settlement inhibition of barnacle cyprids (in words): sub-micromolar
In vivo
  LC50 at 24 h: 26.2 µM
  LC50 at 48 h: 26.3 µM
  LC50 at 72 h: 20.3 µM

## C=C(C1CCC(C)(O)C(Br)C1)C1C(Br)C2C(CCC2(C)O)C1(C)C (stereo not shown) [Compound 19, neorogioldiol]
HEK293 cell line
  effect on lysosomal activity (in words): not affected
  EC50: > 1000 µM
RTL-W1 cell line
  EC50: > 1000 µM
  effect on general metabolism and mitochondrial activity (in words): none of the three tested metabolites had an effect
Cyprids of A. amphitrite; 24 h
  EC50: 52.8 µM
Cyprids of A. amphitrite; [1]
  IC50: 0.4 µM
Cyprids of A. amphitrite; 48 h
  EC50: 57.9 µM
Cyprids of A. amphitrite; [2]
  IC50: 0.915 µM
Cyprids of A. amphitrite; 72 h
  EC50: 70.4 µM
Cyprids of A. amphitrite; [3]
  IC50: 0.756 µM
Cyprids of A. amphitrite
  EC50 values for settlement inhibition of barnacle cyprids (in words): sub-micromolar
In vivo
  LC50 at 24 h: 413 µM
  LC50 at 48 h: 366 µM
  LC50 at 72 h: 573 µM
